# What was measured:
# [1] = Release of active compound after incubation with DTT in PBS at 37° C., HPLC analysis; format: physicochemical; conditions: 37° C. in PBS; for release of MS4048 after DTT treatment: DTT (10 equiv), HPLC
# Protocol: FA-S2-POMA and the negative control FA-C2-POMA were incubated with dithiothreitol (DTT) under physiological conditions (37° C. in phosphate buffered saline (PBS)) and then subjected to HPLC analysis.
# The effects of these folate caged PROTACS on ALK fusion protein degradation was assessed in cancer cells. FA-S2-MS4048 and FA-C2-MS4048 were incubated with DTT at 37° C. in PBS. […] Furthermore, compared to FA-S2-POMA (FIG. 11B), the release rate of FA-S2-MS4048 is slower.
# NPM-ALK fusion protein = biological target: T1, NPM-ALK fusion protein (Homo sapiens, UniProt Q9UM73); assay: Western blot analysis of NPM-ALK fusion protein in SU-DHL-1 cells; format: cell-based; conditions: for effect in degrading NPM-ALK fusion protein after pretreatment with folic acid: free folic acid pretreatment; for DC50: read-out: DC50 of NPM-ALK fusion protein degradation
# T1 construct: endogenous in cells; host or cells: SU-DHL-1; the other entry of the earlier key: NPM1 (P06748, Nucleophosmin)
# T1 sequence (Q9UM73 with tags, fused parts or gaps): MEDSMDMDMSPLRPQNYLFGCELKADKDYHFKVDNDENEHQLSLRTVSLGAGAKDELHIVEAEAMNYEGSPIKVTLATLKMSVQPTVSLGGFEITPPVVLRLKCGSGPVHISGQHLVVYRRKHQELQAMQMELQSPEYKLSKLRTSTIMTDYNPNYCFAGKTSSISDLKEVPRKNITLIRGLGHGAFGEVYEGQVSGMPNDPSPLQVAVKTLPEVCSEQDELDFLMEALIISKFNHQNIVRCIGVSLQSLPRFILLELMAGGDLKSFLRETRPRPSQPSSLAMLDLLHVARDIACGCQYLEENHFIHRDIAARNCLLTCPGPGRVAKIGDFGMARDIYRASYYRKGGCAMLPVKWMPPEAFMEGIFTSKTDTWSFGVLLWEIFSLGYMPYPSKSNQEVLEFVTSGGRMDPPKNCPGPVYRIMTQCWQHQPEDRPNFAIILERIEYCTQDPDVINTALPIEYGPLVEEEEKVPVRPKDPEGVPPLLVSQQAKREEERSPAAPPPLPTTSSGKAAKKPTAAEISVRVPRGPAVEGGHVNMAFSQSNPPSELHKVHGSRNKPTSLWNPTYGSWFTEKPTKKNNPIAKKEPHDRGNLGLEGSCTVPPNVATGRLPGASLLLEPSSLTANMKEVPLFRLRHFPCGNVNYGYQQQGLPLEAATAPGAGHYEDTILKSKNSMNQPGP
# Protocol: (§1) For folic acid competitive degradation assay, cells were pretreated with folic acid (F8758, Sigma-Aldrich, 2.5 mM) for 2 hours, followed by the treatment of indicated PROTACs for indicated time. For endocytosis inhibition, cells were pretreated with Pitostop 2 (SML1169, Sigma-Aldrich, 1-30 μM) or MCD (21633, Cayman, 0.03-1 mM) for 12 hours, followed by co-treatment with indicated PROTACs for another 12 hours. For proteasome or E3 ligase inhibition assay, cells were treated with MG132 (BML-P11020, ENZO Life Sciences, 10 μM) or MLN4924 (S7109, SelleckChem, 1 μM) another 12 hours. For GSH-stimulating assay, cells were treated with S-Acetyl-GSH (29624, Cayman, 1 mM) with indicated PROTACs for 12 or 72 hours.
# (§2) Cells were lysed in EBC buffer (50 mM Tris pH 7.5, 120 mM NaCl, 0.5% NP-40) supplemented with protease inhibitors (Pierce) and phosphatase inhibitors (phosphatase inhibitor cocktail set I and II, Calbiochem). The protein concentrations of the lysates were measured using the Bio-Rad protein assay reagent on a Beckman Coulter DU-800 spectrophotometer. The lysates were then resolved by SDS-PAGE and immunoblotted with indicated antibodies.
# (§3) Cells were lysed in EBC buffer (50 mM Tris-HCl pH 7.5, 120 mM NaCl and 0.5% NP-40) supplemented with protease inhibitors (Pierce) and phosphatase inhibitors (phosphatase inhibitor cocktailset I and II, Calbiochem). The protein concentrations of the lysates were measured using the Bio-Rad protein assay reagent on a Beckman Coulter DU-800 spectrophotometer. The lysates (40 μg protein) werethen resolved by 10% SDS-olyacrylamide gel electrophoresis (PAGE) at 130 V for 80 min and immunoblotted with indicated antibodies at 4° C. overnight, washed four times with Tris-buffered saline with 0.1% Tween-20 (TBST) buffer, incubated with secondary antibody for 1 hour at room temperature, and then washed 4 times with TBST.
# SU-DHL-1 cells = assay: Cell viability of SU-DHL-1 cells (CCK-8); format: cell-based; conditions: 72 hours; for IC50: Homo sapiens, read-out: IC50 cell viability / proliferation
# Protocol: as §1
# Cell in 96-well plates were treated with drugs as indicated, and then incubated with 10 μl/well of CCK-8 (cell counting Kit-8) solution at for 1-2 hours, followed by the measurement of optical density at 450 nm.
# EML4-ALK fusion protein = biological target: T2, EML4-ALK fusion protein (Homo sapiens, UniProt Q9UM73); assay: Western blot analysis of EML4-ALK fusion protein in NCI-H2228 and NCI-H3122 NSCLC cells; format: cell-based
# T2 construct: endogenous in cells; host or cells: NCI-H2228, NCI-H3122; the other entry of the earlier key: EML4 (Q9HC35, Echinoderm microtubule-associated protein-like 4)
# T2 sequence (Q9UM73 1058-1620 limits assumed): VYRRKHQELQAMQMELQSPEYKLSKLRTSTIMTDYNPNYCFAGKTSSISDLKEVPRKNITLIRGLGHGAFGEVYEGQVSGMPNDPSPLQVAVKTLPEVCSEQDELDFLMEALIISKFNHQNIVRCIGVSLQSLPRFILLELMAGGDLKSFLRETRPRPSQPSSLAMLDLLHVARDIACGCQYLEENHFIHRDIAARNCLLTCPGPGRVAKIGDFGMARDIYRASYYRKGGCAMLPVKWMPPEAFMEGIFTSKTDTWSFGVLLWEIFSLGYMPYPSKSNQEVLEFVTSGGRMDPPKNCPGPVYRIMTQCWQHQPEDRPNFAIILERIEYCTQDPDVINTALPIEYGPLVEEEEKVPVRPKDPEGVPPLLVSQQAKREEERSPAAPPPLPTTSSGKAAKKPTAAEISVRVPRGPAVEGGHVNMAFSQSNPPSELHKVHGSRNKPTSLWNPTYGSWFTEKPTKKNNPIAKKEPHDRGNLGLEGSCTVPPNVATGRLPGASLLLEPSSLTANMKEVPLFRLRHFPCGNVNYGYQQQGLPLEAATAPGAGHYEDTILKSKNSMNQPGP
# Protocol: as §1, §2, §3
# MEK1 and MEK2 = assay: Western blot analysis of MEK1 and MEK2 levels in HT29 and SK-MEL-28 cells; format: cell-based; conditions: HT29 and SK-MEL-28 cells, dose- and time-dependent
# Protocol: as §1, §2, §3
structure (smiles),measurement,setting,value
"Cc1cc(Nc2ncc(Cl)c(Nc3ccccc3S(=O)(=O)C(C)C)n2)c(OC(C)C)cc1C1CCN(CC(=O)NCCNc2cccc3c2C(=O)N(C2CCC(=O)N(C(=O)OCCCCCCn4cc(CNC(=O)CC[C@H](NC(=O)c5ccc(NCc6cnc7nc(N)[nH]c(=O)c7n6)cc5)C(=O)O)nn4)C2=O)C3=O)CC1 (stereo partly drawn) [FA-C2-MS4048, N^2-(4-(((2-amino-4-oxo-3,4-dihydropteridin-6-yl)methyl)amino)benzoyl)-N^5-((1-(6-((3-(4-((2-(2-(4-(4-((5-chloro-4-((2-(isopropylsulfonyl)phenyl)amino)pyrimidin-2-yl)amino)-5-isopropoxy-2-methylphenyl)piperidin-1-yl)acetamido)ethyl)amino)-1,3-dioxoisoindolin-2-yl)-2,6-dioxopiperidine-1-carbonyl)oxy)hexyl)-1H-1,2,3-triazol-4-yl)methyl)-L-glutamine]",release of MS4048 after DTT treatment,[1],no release of MS4048
same,degradation of NPM-ALK fusion protein,NPM-ALK fusion protein; SU-DHL-1 cells,had some degradation effect
same,IC50,SU-DHL-1 cells,9500 nM
"Cc1cc(Nc2ncc(Cl)c(Nc3ccccc3S(=O)(=O)C(C)C)n2)c(OC(C)C)cc1C1CCN(CC(=O)NCCNc2cccc3c2C(=O)N(C2CCC(=O)N(C(=O)OCCSSCCn4cc(CNC(=O)CC[C@H](NC(=O)c5ccc(NCc6cnc7nc(N)[nH]c(=O)c7n6)cc5)C(=O)O)nn4)C2=O)C3=O)CC1 (stereo partly drawn) [FA-S2-MS4048, N^2-(4-(((2-amino-4-oxo-3,4-dihydropteridin-6-yl)methyl)amino)benzoyl)-N^5-((1-(2-((2-((3-(4-((2-(2-(4-(4-((5-chloro-4-((2-(isopropylsulfonyl)phenyl)amino)pyrimidin-2-yl)amino)-5-isopropoxy-2-methylphenyl)piperidin-1-yl)acetamido)ethyl)amino)-1,3-dioxoisoindolin-2-yl)-2,6-dioxopiperidine-1-carbonyl)oxy)ethyl)disulfanyl)ethyl)-1H-1,2,3-triazol-4-yl)methyl)-L-glutamine]",release of MS4048 after DTT treatment,[1],efficient release of MS4048
same,release rate compared to FA-S2-POMA,[1]; DTT,slower
same,potency in degrading the ALK proteins compared with FA-C2-MS4048,NPM-ALK fusion protein; ALK fusion proteins,more potent than FA-C2-MS4048
same,potency in degrading the proteins of interest compared with MS4048,NPM-ALK fusion protein; ALK fusion proteins,"less potent than its uncaged analog, MS4048"
same,degradation of NPM-ALK fusion protein,NPM-ALK fusion protein; SU-DHL-1 cells,effectively degraded
same,time at which significant degradation was observed,"NPM-ALK fusion protein; SU-DHL-1 cells, 3 μM",≤ 1 h
same,effect on degrading NPM-ALK after depletion of endogenous CRBN E3 ligase,"NPM-ALK fusion protein; SU-DHL-1 cells, 3 μM, 12 hours",significantly reduced the effect
same,effect on degrading NPM-ALK after knockdown of FOLR1 via shRNAs,"NPM-ALK fusion protein; SU-DHL-1 cells, 3 μM, 12 hours",completely abolished the effect
same,degradation of NPM-ALK with MG132 or MLN4924,"NPM-ALK fusion protein; SU-DHL-1 cells, 10 μM MG132 or 1 μM MLN4924",blocked the degradation of NPM-ALK
same,potency in degrading NPM-ALK after pretreatment with S-Ac-GSH,"NPM-ALK fusion protein; SU-DHL-1 cells, S-Ac-GSH 1 mM",significant increase in potency
same,effect in degrading NPM-ALK fusion protein after pretreatment with folic acid,NPM-ALK fusion protein; SU-DHL-1 cells,blocked the effect
same,degradation of EML4-ALK fusion proteins,EML4-ALK fusion protein,effectively degraded
same,degradation of EML4-ALK with MG132 or MLN4924,EML4-ALK fusion protein; MG132 or MLN4924,blocked the degradation
same,potency in inhibiting proliferation after pretreatment with folic acid,SU-DHL-1 cells; 2.5 mM folic acid,significantly reduced potency
same,IC50,SU-DHL-1 cells,465 nM
same,potency in inhibiting proliferation after pretreatment with S-Ac-GSH,SU-DHL-1 cells; S-Ac-GSH 1 mM,significantly increased potency
"Cc1cc(Nc2ncc(Cl)c(Nc3ccccc3S(=O)(=O)C(C)C)n2)c(OC(C)C)cc1C1CCN(C(=O)CCCC(=O)N[C@H](C(=O)N2C[C@H](OC(=O)CCCCn3cc(CNC(=O)CC[C@H](NC(=O)c4ccc(NCc5cnc6nc(N)[nH]c(=O)c6n5)cc4)C(=O)O)nn3)C[C@H]2C(=O)N[C@@H](C)c2ccc(-c3scnc3C)cc2)C(C)(C)C)CC1 [Folate-MS99, N^2-(4-(((2-amino-4-oxo-3,4-dihydropteridin-6-yl)methyl)amino)benzoyl)-N^5-((1-(5-(((3R,5S)-1-((S)-2-(5-(4-(4-((5-chloro-4-((2-(isopropylsulfonyl)phenyl)amino)pyrimidin-2-yl)amino)-5-isopropoxy-2-methylphenyl)piperidin-1-yl)-5-oxopentanamido)-3,3-dimethylbutanoyl)-5-(((S)-1-(4-(4-methylthiazol-5-yl)phenyl)ethyl)carbamoyl)pyrrolidin-3-yl)oxy)-5-oxopentyl)-1H-1,2,3-triazol-4-yl)methyl)-L-glutamine]",degradation of NPM-ALK fusion protein,NPM-ALK fusion protein; SU-DHL-1 cells,degraded NPM-ALK fusion protein efficiently
same,DC50,"NPM-ALK fusion protein; SU-DHL-1 cells, 12 hours",100 nM
same,effect in degrading NPM-ALK fusion protein after pretreatment with folic acid,NPM-ALK fusion protein; SU-DHL-1 cells,antagonized the effect
same,degradation of EML4-ALK fusion proteins,EML4-ALK fusion protein,efficiently degraded the EML4-ALK fusion proteins
same,effect in degrading EML4-ALK fusion protein after pretreatment with free folic acid,EML4-ALK fusion protein; free folic acid pretreatment,antagonized the effect
same,IC50,SU-DHL-1 cells,200 nM
"Cc1cc(Nc2ncc(Cl)c(Nc3ccccc3S(=O)(=O)C(C)C)n2)c(OC(C)C)cc1C1CCN(C(=O)CCCC(=O)N[C@H](C(=O)N2C[C@H](NC(=O)CCCCn3cc(CNC(=O)CC[C@H](NC(=O)c4ccc(NCc5cnc6nc(N)[nH]c(=O)c6n5)cc4)C(=O)O)nn3)C[C@H]2C(=O)N[C@@H](C)c2ccc(-c3scnc3C)cc2)C(C)(C)C)CC1 [Folate-MS99N, N^2-(4-(((2-amino-4-oxo-3,4-dihydropteridin-6-yl)methyl)amino)benzoyl)-N^5-((1-(5-(((3R,5S)-1-((S)-2-(5-(4-(4-((5-chloro-4-((2-(isopropylsulfonyl)phenyl)amino)pyrimidin-2-yl)amino)-5-isopropoxy-2-methylphenyl)piperidin-1-yl)-5-oxopentanamido)-3,3-dimethylbutanoyl)-5-(((S)-1-(4-(4-methylthiazol-5-yl)phenyl)ethyl)carbamoyl)pyrrolidin-3-yl)amino)-5-oxopentyl)-1H-1,2,3-triazol-4-yl)methyl)-L-glutamine]",degrading NPM-ALK,"NPM-ALK fusion protein; SU-DHL-1 cells, even at 3 μM",incapable of degrading NPM-ALK
"Cc1ncsc1-c1ccc([C@H](C)NC(=O)[C@@H]2C[C@@H](NC(=O)CCCCn3cc(CNC(=O)CC[C@H](NC(=O)c4ccc(NCc5cnc6nc(N)[nH]c(=O)c6n5)cc4)C(=O)O)nn3)CN2C(=O)[C@@H](NC(=O)CCCCCCCCCCNCCCONC(=O)c2ccc(F)c(F)c2Nc2ccc(I)cc2F)C(C)(C)C)cc1 [Folate-MS432N, N^2-(4-(((2-amino-4-oxo-3,4-dihydropteridin-6-yl)methyl)amino)benzoyl)-N^5-((1-(5-(((3R,5S)-1-((S)-2-(11-((3-((3,4-difluoro-2-((2-fluoro-4-iodophenyl)amino)benzamido)oxy)propyl)amino)undecanamido)-3,3-dimethylbutanoyl)-5-(((S)-1-(4-(4-methylthiazol-5-yl)phenyl)ethyl)carbamoyl)pyrrolidin-3-yl)amino)-5-oxopentyl)-1H-1,2,3-triazol-4-yl)methyl)-L-glutamine]",degradation of MEK1 and MEK2,MEK1 and MEK2,could not do so
"Cc1cc(Nc2ncc(Cl)c(Nc3ccccc3S(=O)(=O)C(C)C)n2)c(OC(C)C)cc1C1CCN(C(=O)CCCC(=O)N[C@H](C(=O)N2C[C@H](O)C[C@H]2C(=O)N[C@@H](C)c2ccc(-c3scnc3C)cc2)C(C)(C)C)CC1 [MS99, (2S,4R)-1-((S)-2-(5-(4-(4-((5-chloro-4-((2-(isopropylsulfonyl)phenyl)amino)pyrimidin-2-yl)amino)-5-isopropoxy-2-methylphenyl)piperidin-1-yl)-5-oxopentanamido)-3,3-dimethylbutanoyl)-4-hydroxy-N-((S)-1-(4-(4-methylthiazol-5-yl)phenyl)ethyl)pyrrolidine-2-carboxamide]",degradation of NPM-ALK fusion protein,NPM-ALK fusion protein; SU-DHL-1 cells,degraded NPM-ALK fusion protein efficiently
same,DC50,"NPM-ALK fusion protein; SU-DHL-1 cells, 12 hours",30 nM
same,IC50,SU-DHL-1 cells,91.4 nM
